Source: patent publication US10815222B2, “Compounds for use in the treatment of kinetoplastid infection” (C.N.C.C.S. S.c.a.r.l. COLLEZIONE NAZIONALE DEI COMPOSTI …, priority 2016, dated 2020)
Where two headings read alike, the source gives them in different places.

Tested on: Bloodstream form of Trypanosoma brucei, strain Lister 427
Assay: Trypanosoma brucei growth inhibition assay (CellTiter-Glo, 24 h)
Format: cell-based
Conditions: T. Brucei Growth Inibition Assay, class symbols, read-out: T. Brucei GI EC50
Outline: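 Bloodstream-form T. brucei Lister 427, 1500 parasites per well in supplemented IMDM with 10% FBS, were exposed to compound (DMSO ≤0.25% final) for 24 h at 37 °C. Viability was measured by CellTiter-Glo luminescence.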

Row | Structure (SMILES) | EC50 (Trypanosoma brucei) [nM] | EC50 [nM]
1 | COc1nc2ccccc2cc1-c1cnc(C2CCN(Cc3ccn(C)n3)CCN2C(=O)Cn2c(C(F)(F)F)nc3ccccc32)[nH]1 (centres unmarked) [1-(7-(5-(2-methoxyquinolin-3-yl)-1H-imidazol-2-yl)-4-((1-methyl-1H-pyrazol-3-yl)methyl)-1,4-diazepan-1-yl)-2-(2-(trifluoromethyl)-1H-benzo[d]imidazol-1-yl)ethan-1-one] | < 100 | –
2 | COc1nc2ccccc2cc1-c1cnc([C@@H]2CN(CC3CCOC3)CCN2C(=O)Cn2c(C)nc3ccc(S(C)(=O)=O)cc32)[nH]1 (some centres unmarked) | 100 to 500 | –
3 | CCCCCCN1CCN(C(=O)Cc2c(C)[nH]c3ccccc23)C(c2ncc(-c3ccc4ccccc4c3)[nH]2)C1 (centres unmarked) | 510 to 1000 | –
4 | COc1ccc2nc(C(F)(F)F)n(CC(=O)N3CCS(=O)(=O)CC3c3ncc(-c4cc5ccccc5nc4OC)[nH]3)c2c1 (centres unmarked) [2-(6-methoxy-2-(trifluoromethyl)-1H-benzo[d]imidazol-1-yl)-1-(3-(5-(2-methoxyquinolin-3-yl)-1H-imidazol-2-yl)-1,1-dioxidothiomorpholino)ethan-1-one] | 100 to 500 | –
5 | CCC(=O)CCCN1CCN(S(=O)(=O)c2ccccc2)C(c2ncc(-c3ccc4ccccc4c3)[nH]2)C1 (centres unmarked) [6-(3-(5-(naphthalen-2-yl)-1H-imidazol-2-yl)-4-(phenylsulfonyl)piperazin-1-yl)hexan-3-one] | 1010 to 5000 | –
6 | COc1ccc2nc(C)n(CC(=O)N3CCN(CC4CCOC4)C[C@H]3c3ncc(-c4cc5ccccc5nc4OC)[nH]3)c2c1 (stereo partly drawn) [2-(6-methoxy-2-methyl-1H-benzo[d]imidazol-1-yl)-1-((2S)-2-(5-(2-methoxyquinolin-3-yl)-1H-imidazol-2-yl)-4-((tetrahydrofuran-3-yl)methyl)piperazin-1-yl)ethan-1-one] | < 100 | –
7 | COc1ccc2nc(C(F)(F)F)n(CC(=O)N3CC[C@H](NC4CC(OC)C4)C[C@H]3c3ncc(-c4cc5ccccc5nc4OC)[nH]3)c2c1 (stereo partly drawn) [2-(6-methoxy-2-(trifluoromethyl)-1H-benzo[d]imidazol-1-yl)-1-((2S,4S)-4-((3-methoxycyclobutyl)amino)-2-(5-(2-methoxyquinolin-3-yl)-1H-imidazol-2-yl)piperidin-1-yl)ethan-1-one] | < 100 | –
8 | CO[C@@](C(=O)N1CCN(C)C[C@@H]1c1ncc(-c2ccc3ccccc3c2)[nH]1)(c1ccccc1)C(F)(F)F | 1010 to 5000 | –
9 | COc1ccc2[nH]c(C)c(CC(=O)N3CCN(CCCC(N)=O)CC3c3ncc(-c4ccc5ccccc5c4)[nH]3)c2c1 (centres unmarked) | 100 to 500 | –
10 | COc1ccc2nc(C(F)(F)F)n(CC(=O)N3CCC(N(C)Cc4cnccn4)C[C@H]3c3ncc(-c4cc5ccccc5nc4OC)[nH]3)c2c1 (stereo partly drawn) [2-(6-methoxy-2-(trifluoromethyl)-1H-benzo[d]imidazol-1-yl)-1-((2S)-2-(5-(2-methoxyquinolin-3-yl)-1H-imidazol-2-yl)-4-(methyl(pyrazin-2-ylmethyl)amino)piperidin-1-yl)ethan-1-one] | < 100 | –
11 | COc1nc2ccccc2cc1-c1cnc(C2CN(C)CCN2C(=O)Cc2ccccc2)[nH]1 (centres unmarked) [1-(2-(5-(2-methoxyquinolin-3-yl)-1H-imidazol-2-yl)-4-methylpiperazin-1-yl)-2-phenylethan-1-one] | 1010 to 5000 | –
12 | COc1nc2ccccc2cc1-c1cnc(C2CN(CC3CCOC3)CCN2C(=O)Cn2c(C)nc3ccc(F)cc32)[nH]1 (centres unmarked) | 100 to 500 | –
13 | COc1ccc2nc(C)n(CC(=O)N3CCN(CC4CCOC4)C[C@H]3c3ncc(-c4ccc5ncccc5c4)[nH]3)c2c1 (some centres unmarked) | 1010 to 5000 | –
14 | COc1nc2ccccc2cc1-c1cnc(C2CN(CC3CCOC3)CCN2C(=O)Cn2c(C3CC3)nc3ccccc32)[nH]1 (centres unmarked) | 100 to 500 | –
15 | CCC(=O)CCCN1CCN(C(=O)Cc2c[nH]c3ccccc23)[C@@H](c2ncc(-c3ccc4ccccc4c3)[nH]2)C1 | 1010 to 5000 | –
16 | O=C(Cc1c[nH]c2ncccc12)N1CCCCC1c1ncc(-c2ccc3ccccc3c2)[nH]1 (centres unmarked) | 1010 to 5000 | –
17 | COc1nc2ccccc2cc1-c1cnc(C2CN(CC3CCOC3)CCN2C(=O)Cn2ccc3cc(C#N)ccc32)[nH]1 (centres unmarked) | 510 to 1000 | –
18 | CN1CCN(C(=O)Cc2cnc3ccccc3c2)C(c2ncc(-c3ccc4ccccc4c3)[nH]2)C1 (centres unmarked) | 1010 to 5000 | –
19 | COc1nc2ccccc2cc1-c1cnc(C2CN(CC3CCOC3)CCN2C(=O)c2cc(C)n(Cc3ccccc3)n2)[nH]1 (centres unmarked) | 1010 to 5000 | –
20 | COc1nc2ccccc2cc1-c1cnc(C2COCCN2C(=O)Cn2nc(C)c3ccccc3c2=O)[nH]1 (centres unmarked) | 1010 to 5000 | –
21 | COc1nc2ccccc2cc1-c1cnc(C2CN(CC3CCOC3)CCN2C(=O)Cc2nc(-c3ccccc3)oc2C)[nH]1 (centres unmarked) | 1010 to 5000 | –
22 | COc1ccc2c(c1)C(CC(=O)N1CCN(CCc3ccccc3)CC1c1ncc(-c3ccc4ccccc4c3)[nH]1)C(=O)N2 (centres unmarked) | 510 to 1000 | –
23 | O=C(Cc1n[nH]c2ccccc12)N1CCN(Cc2ccccc2)CC1c1ncc(-c2ccc3ccccc3c2)[nH]1 (centres unmarked) | 1010 to 5000 | –
24 | COc1ccc2nc(C(F)(F)F)n(CC(=O)N3CC[C@@H](N(C)CC4CCOC4)C[C@H]3c3ncc(-c4cc5ccccc5nc4OC)[nH]3)c2c1 (some centres unmarked) | – | < 100

Row | Structure (SMILES) | EC50 (Trypanosoma brucei) [nM] | EC50 [nM]
25 | COc1nc2ccccc2cc1-c1cnc(C2CN(CC3CCCC3)CCN2C(=O)Cc2c(C)[nH]c3ccc(F)cc23)[nH]1 (centres unmarked) | 100 to 500 | –
26 | Cn1cc(CC(=O)N2CCN(CC3CCOC3)CC2c2ncc(-c3ccc4ccccc4c3)[nH]2)c2ccccc21 (centres unmarked) | 100 to 500 | –
27 | COc1ccc2nc(C(F)(F)F)n(CC(=O)N3C[C@@H](NC4CCOC4)CC[C@H]3c3ncc(-c4cc5ccccc5nc4OC)[nH]3)c2c1 (some centres unmarked) | 510 to 1000 | –
28 | COc1ccc2nc(C(F)(F)F)n(CC(=O)N3CCN(C4CCOC4)CCC3c3ncc(-c4cc5ccccc5nc4OC)[nH]3)c2c1 (centres unmarked) [2-(6-methoxy-2-(trifluoromethyl)-1H-benzo[d]imidazol-1-yl)-1-(7-(5-(2-methoxyquinolin-3-yl)-1H-imidazol-2-yl)-4-(tetrahydrofuran-3-yl)-1,4-diazepan-1-yl)ethan-1-one] | < 100 | –
29 | Cc1csc(CC(=O)N2CCN(Cc3ccccc3)CC2c2ncc(-c3ccc4ccccc4c3)[nH]2)n1 (centres unmarked) | 1010 to 5000 | –
30 | CCC(=O)CCCN1CCN(C(=O)Cc2ccccc2)C(c2ncc(-c3cc4ccccc4nc3OC)[nH]2)C1 (centres unmarked) | 1010 to 5000 | –
31 | COc1ccc2nc(C(F)(F)F)n(CC(=O)N3CCN(Cc4cocn4)CCC3c3ncc(-c4cc5ccccc5nc4OC)[nH]3)c2c1 (centres unmarked) [2-(6-methoxy-2-(trifluoromethyl)-1H-benzo[d]imidazol-1-yl)-1-(7-(5-(2-methoxyquinolin-3-yl)-1H-imidazol-2-yl)-4-(oxazol-4-ylmethyl)-1,4-diazepan-1-yl)ethan-1-one] | < 100 | –
32 | COc1ccc2nc(C(F)(F)F)n(CC(=O)N3CCN(Cc4nccs4)C[C@H]3c3nnc(-c4cc5ccccc5nc4OC)[nH]3)c2c1 [(S)-2-(6-methoxy-2-(trifluoromethyl)-1H-benzo[d]imidazol-1-yl)-1-(2-(5-(2-methoxyquinolin-3-yl)-4H-1,2,4-triazol-3-yl)-4-(thiazol-2-ylmethyl)piperazin-1-yl)ethan-1-one] | < 100 | –
33 | COc1ccc2nc(C)n(CC(=O)N3CC[C@H](NCC4CCOC4)C[C@H]3c3ncc(-c4cc5ccccc5nc4OC)[nH]3)c2c1 (some centres unmarked) | 1010 to 5000 | –
34 | COc1ccc2c(c1)nc(C(F)(F)F)n2CC(=O)N1CCN(CC2CCOC2)C[C@H]1c1ncc(-c2cc3ccccc3nc2OC)[nH]1 (stereo partly drawn) [2-(5-methoxy-2-(trifluoromethyl)-1H-benzo[d]imidazol-1-yl)-1-((2S)-2-(5-(2-methoxyquinolin-3-yl)-1H-imidazol-2-yl)-4-((tetrahydrofuran-3-yl)methyl)piperazin-1-yl)ethan-1-one] | < 100 | –
35 | COc1nc2ccccc2cc1-c1cnc([C@@H]2CN(C[C@H]3CCOC3)CCN2C(=O)Cn2c(C(F)(F)F)nc3ccccc32)[nH]1 (single isomer, unassigned) | < 100 | –
36 | COc1ccc2[nH]c(C)c(CC(=O)N3CC(=O)N(C)CC3c3ncc(-c4ccc5ccccc5c4)[nH]3)c2c1 (centres unmarked) [4-(2-(5-methoxy-2-methyl-1H-indol-3-yl)acetyl)-1-methyl-5-(5-(naphthalen-2-yl)-1H-imidazol-2-yl)piperazin-2-one] | 510 to 1000 | –
37 | COc1nc2ccccc2cc1-c1cnc(C2CN(CC3CCOC3)CCN2C(=O)Cn2nnc3ccccc32)[nH]1 (centres unmarked) | 510 to 1000 | –
38 | COc1nc2ccccc2cc1-c1cnc(C2CN(CC3CCOC3)CCN2C(=O)Cn2c(C#N)nc3ccccc32)[nH]1 (centres unmarked) | 1010 to 5000 | –
39 | CCC(=O)CCCN1CCN(C(=O)Nc2ccccc2)C(c2ncc(-c3ccc4ccccc4c3)[nH]2)C1 (centres unmarked) [2-(5-(naphthalen-2-yl)-1H-imidazol-2-yl)-4-(4-oxohexyl)-N-phenylpiperazine-1-carboxamide] | 1010 to 5000 | –
40 | COc1nc2ccccc2cc1-c1cnc([C@@H]2CN(CC3CCOC3)CCN2C(=O)Cc2noc3ccc(F)cc23)[nH]1 (some centres unmarked) | 1010 to 5000 | –
41 | COc1nc2ccccc2cc1-c1cnc([C@@H]2CN(Cc3ccon3)CCN2C(=O)Cn2c(C(F)(F)F)nc3ccccc32)[nH]1 [(S)-1-(4-(isoxazol-3-ylmethyl)-2-(5-(2-methoxyquinolin-3-yl)-1H-imidazol-2-yl)piperazin-1-yl)-2-(2-(trifluoromethyl)-1H-benzo[d]imidazol-1-yl)ethan-1-one] | < 100 | –
42 | COc1nc2ccccc2cc1-c1cnc(C2CN(Cc3ccoc3)CCN2C(=O)Cc2c(C)[nH]c3ccc(F)cc23)[nH]1 (centres unmarked) | 100 to 500 | –
43 | COc1ccc2nc(C)n(CC(=O)N3CCN(CC4CCOC4)C[C@H]3c3ncc(-c4ccc5ncsc5c4)[nH]3)c2c1 (stereo partly drawn) [1-((2S)-2-(5-(benzo[d]thiazol-6-yl)-1H-imidazol-2-yl)-4-((tetrahydrofuran-3-yl)methyl)piperazin-1-yl)-2-(6-methoxy-2-methyl-1H-benzo[d]imidazol-1-yl)ethan-1-one] | 1010 to 5000 | –
44 | COc1nc2ccccc2cc1-c1cnc(C2CNCCN2C(=O)Cn2c(C)nc3ccccc32)[nH]1 (centres unmarked) | 1010 to 5000 | –
45 | COc1nc2ccccc2cc1-c1cnc([C@@H]2CN(C3COC3)CCN2C(=O)Cn2c(C(F)(F)F)nc3ccccc32)[nH]1 [(S)-1-(2-(5-(2-methoxyquinolin-3-yl)-1H-imidazol-2-yl)-4-(oxetan-3-yl)piperazin-1-yl)-2-(2-(trifluoromethyl)-1H-benzo[d]imidazol-1-yl)ethan-1-one] | < 100 | –
46 | Cc1[nH]c2ccc(F)cc2c1CC(=O)N1CCS(=O)(=O)CC1c1ncc(-c2ccc3ccccc3c2)[nH]1 (centres unmarked) | 100 to 500 | –
47 | COc1ccc2nc(C)n(CC(=O)N3CCN(Cc4cn(C)nn4)C[C@H]3c3ncc(-c4cc5ccccc5nc4OC)[nH]3)c2c1 | 510 to 1000 | –
